Assay results reported in paper PMC8080620, “Coiled-coil heterodimers with increased stability for cellular regulation and sensing SARS-CoV-2 spike protein-mediated cell fusion” (Scientific Reports, 2021).
Where a name gives a salt, the structure may show the parent alone.

Tests used:
[1] = test system: SARS-CoV-2 S protein-mediated cell–cell fusion; format: cell-based, human
[2] = test system: reconstituted CC-split luciferase in HEK293T cells; assay: CC-split luciferase displacement by externally added synthetic displacer peptide; format: cell-based, human; details: for Displacement of cognate peptide from the N8:N7 split luciferase by added synthetic peptide: nLuc:N8 and cLuc:N7, peptide 0–50 µM in DOTAP for 2 h (Fig. S6B)
[3] = CD thermal denaturation scans (midpoint Tm); format: physicochemical; details: CC of the peptide with N8 compared with N8:N7
Description: CD measurements were performed with a ChiraScan instrument (Applied Photophysics, UK) equipped with a Peltier thermal control block (Melcor, NJ, Laird Technologies). The final concentrations of individual peptides were […] in Tris buffer (50 mM Tris–HCl, pH 7.5, 150 mM NaCl, and 1 mM TCEP). The mixture also contained a 20 μM concentration of each peptide. All experiments were performed in a quartz cuvette (Hellma, Germany) with a path length of 1 mm. CD spectra were measured every 1 nm from 200 to 280 nm with a bandwidth of 1 nm and 0.5 s integration time. The results are the average of three scans. Temperature denaturation scans were performed by measuring the CD signal at 222 nm from 0 to 95 °C in 1 °C increments at a rate of 1 °C/min. The actual sample temperatures were measured directly in the cuvette using a temperature probe. The CD spectrum was measured at 95 °C and at 20 °C after rapid cooling.

[4] = test system: CC-split transcription factor (TALE-A:CC with CC:VP16) in HEK293T cells; assay: CC-split transcription factor reconstitution and displacement (TALE10x-Pmin-fLuc reporter); format: cell-based, human; details: TALE-A:N8 with CC:VP16, displacer plasmid 0-50 or 0–70 ng, 48 h after transfection
[5] = test system: reconstituted CC-split luciferase in HEK293T cells; assay: CC-split luciferase attenuation by co-expressed displacer peptide; format: cell-based, human
[6] = SEC-MALS multimerization state; format: physicochemical; details: peptides 200 µM in 50 mM Tris–HCl pH 7.5, 150 mM NaCl, 10% glycerol
Description: A Waters e2695 HPLC system coupled with a 2489 UV detector (Waters, MA) and a Dawn 8 + multiple-angle light scattering detector (Wyatt, CA) was used for SEC-MALS experiments. Peptides (200 μM in 50 mM Tris–HCl with a pH of 7.5, 150 mM NaCl, and 10% glycerol) were filtered using Durapore 0.1 μm centrifuge filters (Merck Millipore, Ireland) before being injected onto the Biosep SEC-S2000 column (Phenomenex, CA), with the exception of the peptide N2, which was injected in a Superdex 30 increase column (GE, IL). The mobile phases used for the separations were 50 mM Tris–HCl, pH 7.5, 150 mM NaCl and 50 mM Tris–HCl, pH 7.5, 500 mM NaCl for the Biosep SEC-S2000 column and the Superdex 30 increase column, respectively. The injection volume was 50 μl, and the flow rate was 0.5 ml/min. Data analysis was carried out with Astra 7.0 software (Wyatt, CA) utilizing the theoretical extinction coefficient calculated by ProtParam.

P6A [7] = target: T1, P6A (N-terminal acetylation; C-terminal amidation); assay: CD thermal denaturation; 20 µM each peptide; CD signal at 222 nm, 0 to 95 °C; 50 mM Tris-HCl pH 7.5, 150 mM NaCl, 1 mM TCEP; midpoint Tm from a thermodynamic model fit; details: both partners purified
T1 chain: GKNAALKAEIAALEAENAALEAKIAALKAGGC

P6A [8] = target: T2, P6A (synthetic construct, N-terminal acetylation; C-terminal amidation); assay: ITC
T2 chain: T1 chain

N8 = target: T3, N8 (synthetic construct, N-terminal acetylation; C-terminal amidation); assay: ITC
T3 chain: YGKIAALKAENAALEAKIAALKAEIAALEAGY

[9] = target: the molecule itself; assay: SEC-MALS; peptides 200 µM, alone or as equimolar mixture; Biosep SEC-S2000 column; 50 mM Tris-HCl pH 7.5, 150 mM NaCl
P8A [10] = target: T4, P8A (N-terminal acetylation; C-terminal amidation); assay: CD thermal denaturation; 20 µM each peptide; CD signal at 222 nm, 0 to 95 °C; 50 mM Tris-HCl pH 7.5, 150 mM NaCl, 1 mM TCEP; midpoint Tm from a thermodynamic model fit; details: both partners purified
T4 chain: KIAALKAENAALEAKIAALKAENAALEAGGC

P8A [11] = target: T5, P8A (synthetic construct, N-terminal acetylation; C-terminal amidation); assay: ITC
T5 chain: T4 chain

N6 = target: T6, N6 (synthetic construct, N-terminal acetylation; C-terminal amidation); assay: ITC
T6 chain: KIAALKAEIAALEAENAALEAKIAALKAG

## CN(C)C(=O)COC(=O)Cc1ccc(OC(=O)c2ccc(NC(=N)N)cc2)cc1 [Camostat, camostat mesylate]
[1]
  Syncytia formation, luciferase activity of mixture of donor and acceptor cells: reduced the amount of formed syncytia

## EIQQLEE KNSQLKQ EISQLEE KNQELKY G [P7SN, reference compound]
[2]; HEK293T
  Displacement of cognate peptide from the N8:N7 split luciferase by added synthetic peptide: failed to displace the cognate peptide from the N8:N7 split luciferase as efficiently
[3]
  midpoint Tm of N-P-CCs lower than N-CCs: more than 10 °C

## SPED EIQALEE KNAQLKQ EIAALEE KNQALKY G [P7, reference compound]
[2]; HEK293T
  Displacement of cognate peptide from the N8:N7 split luciferase by added synthetic peptide: failed to displace the cognate peptide from the N8:N7 split luciferase as efficiently
[3]
  midpoint Tm of N-P-CCs lower than N-CCs: more than 10 °C
[4]
  Attenuation of CC-split transcription activator assembly by co-expressed NLS-tagged CC-displacer peptide: failed to prevent the reconstitution of a functional transcription as efficiently

## Y EIAALEA KIAALKA KNAALKA EIAALEA GC [N5]
[2]; HEK293T, nLuc:N6 and cLuc:P5, […]
  Displacement of cLuc:P5 from the N6:P5 split luciferase by added synthetic peptide: effectively displaced cLuc:P5
[5]
  N6:P5 split luciferase activity with co-expressed displacer peptide: attenuated N6:P5 split luciferase activity

## Y EIAALEA KNAALKA EIAALEA KIAALKA GC [N7]
[2]; […], peptide in DOTAP for 2 h, 48 h after transfection
  Luciferase activity of CC-split luciferase after addition of synthetic CC-displacer peptide: debilitated CC-split luciferase assembly most efficiently
[4]
  Attenuation of CC-split transcription activator assembly by co-expressed NLS-tagged CC-displacer peptide: weakened the transcription activator assembly most efficiently
[5]; HEK293T, plasmid expressing displacer 0, 80, 155 ng, 48 h after transfection
  Competition of co-expressed displacer peptide with N8:N7 CC split luciferase: failed to effectively compete

## YG EIAALEA KNAALKA EIAALEA KNAALKA GC [P7A]
[6]
  Multimerization state in solution: monomers
[2]; HEK293T
  Displacement of cognate peptide from the N8:N7 split luciferase by added synthetic peptide: failed to displace the cognate peptide from the N8:N7 split luciferase as efficiently
[3]
  midpoint Tm of N-P-CCs lower than N-CCs: more than 10 °C
[4]
  Attenuation of CC-split transcription activator assembly by co-expressed NLS-tagged CC-displacer peptide: failed to prevent the reconstitution of a functional transcription as efficiently

## YG ENAALEA KIAALKA KNAALKA EIAALEA GC [P5A]
[6]
  Multimerization state in solution: monomers

## YG KIAALKA ENAALEA KIAALKA ENAALEA GGC [P8A]
[6]
  Multimerization state in solution: monomers

## YG KNAALKA EIAALEA ENAALEA KIAALKA GGC [P6A]
[6]
  Multimerization state in solution: monomers

## Ac-ENAALEAKIAALKAKNAALKAEIAALEA-NH2 [P5A]
P6A [7]
  Tm: 57 °C
P6A [8]
  Kd: 4 nM

## Ac-GEIAALEAKNAALKAEIAALEAKIAALKAGY-NH2 [N7]
N8
  Kd: 10 nM
[9]
  stoichiometry N: 2

## Ac-GEIAALEAKNAALKAEIAALEAKNAALKAGC-NH2 [P7A]
P8A [10]
  Tm: 64 °C
P8A [11]
  Kd: 19 nM

## Ac-YGKIAALKAENAALEAKIAALKAEIAALEAGY-NH2 [N8]
[9]
  stoichiometry N: 2

## Ac-KIAALKAEIAALEAENAALEAKIAALKAG-NH2 [N6]
[9]
  stoichiometry N: 2

## Ac-GEIAALEAKIAALKAKNAALKAEIAALEAGY-NH2 [N5]
N6
  Kd: 1 nM
[9]
  stoichiometry N: 2
